Each molecule was assayed against AM2 S31N (serine→asparagine mutation at residue 31 in the M2 protein) (Influenza A virus, UniProt P0DOF5, S31N). Conditions: not given.
Type: cell-based, influenza virus A/Udorn/72

SMILES | S31N OOcyte Inhibition at 100 uM (%)
c1ccc(C2=NOC(CNC34CC5CC(CC(C5)C3)C4)C2)cc1 (stereo not drawn) [Example 167a, N-((3-phenyl-4,5-dihydroisoxazol-5-yl)methyl)adamantan-1-amine] | A (key: (A)=31-95%; (B)=0-30%)
COc1ccc2[nH]c(CNC34CC5CC(CC(C5)C3)C4)cc2c1 [Example 182a] | A (key: (A)=31-95%; (B)=0-30%)
c1ccc(-c2noc(CNC34CC5CC(CC(C5)C3)C4)n2)cc1 [Example 123a, N-((3-phenyl-1,2,4-oxadiazol-5-yl)methyl)adamantan-1-amine] | A (key: (A)=31-95%; (B)=0-30%)
CC(C)(C)c1nc(CNC23CC4CC(CC(C4)C2)C3)no1 [Example 103a, N-((5-(tert-butyl)-1,2,4-oxadiazol-3-yl)methyl)adamantan-1-amine] | A (key: (A)=31-95%; (B)=0-30%)
Oc1cc(-c2ccoc2)ccc1CNC12CC3CC(CC(C3)C1)C2 [Example 46a] | A (key: (A)=31-95%; (B)=0-30%)
Cc1ccc(CNC23CC4CC(CC(C4)C2)C3)cc1 [Example 8a, N-(4-Methylbenzyl)adamantan-1-amine] | B (key: (A)=31-95%; (B)=0-30%)
Fc1ccc(-c2cc(CNC34CC5CC(CC(C5)C3)C4)no2)cc1 [Example 118a, N-((5-(4-fluorophenyl)isoxazol-3-yl)methyl)adamantan-1-amine] | A (key: (A)=31-95%; (B)=0-30%)
C1CCC(c2nc(CNC34CC5CC(CC(C5)C3)C4)no2)C1 [Example 109a, N-((5-cyclopentyl-1,2,4-oxadiazol-3-yl)methyl)adamantan-1-amine] | A (key: (A)=31-95%; (B)=0-30%)
FC(F)(F)c1cccc(-c2nc(CNC34CC5CC(CC(C5)C3)C4)no2)c1 [Example 125a, N-((5-(3-(trifluoromethyl)phenyl)-1,2,4-oxadiazol-3-yl)methyl)adamantan-1-amine] | A (key: (A)=31-95%; (B)=0-30%)
CC(C)c1nc(CNC23CC4CC(CC(C4)C2)C3)no1 [Example 102a, N-((5-isopropyl-1,2,4-oxadiazol-3-yl)methyl)adamantan-1-amine] | A (key: (A)=31-95%; (B)=0-30%)
Cc1ccc(CNC23CC4CC(CC(C4)C2)C3)c(O)c1 [Example 51a] | A (key: (A)=31-95%; (B)=0-30%)
c1ccc(-c2nc(CNC34CC5CC(CC(C5)C3)C4)c[nH]2)cc1 [Example 114a, N-((2-phenyl-1H-imidazol-4-yl)methyl)adamantan-1-amine] | B (key: (A)=31-95%; (B)=0-30%)
Cc1ccc(-c2nc(CNC34CC5CC(CC(C5)C3)C4)no2)cc1 [Example 128a, N-((5-(p-tolyl)-1,2,4-oxadiazol-3-yl)methyl)adamantan-1-amine] | A (key: (A)=31-95%; (B)=0-30%)
CC(C)c1csc(CNC23CC4CC(CC(C4)C2)C3)n1 [Example 84a, N-((4-isopropylthiazol-2-yl)methyl)adamantan-1-amine] | B (key: (A)=31-95%; (B)=0-30%)
Clc1cc2cc(CNC34CC5CC(CC(C5)C3)C4)sc2s1 [Example 173a, Adamantan-1-yl-(5-chloro-thieno[2,3-b]thiophen-2-ylmethyl)-amine] | A (key: (A)=31-95%; (B)=0-30%)
c1cc(C2CC2)sc1CNC12CC3CC(CC(C3)C1)C2 [Example 108a, N-((5-cyclopropylthiophen-2-yl)methyl)adamantan-1-amine] | A (key: (A)=31-95%; (B)=0-30%)
Oc1cc(-c2cccs2)ccc1CNC12CC3CC(CC(C3)C1)C2 [Example 49a] | B (key: (A)=31-95%; (B)=0-30%)
FC(F)(F)c1cccc(-c2nc(CNC34CC5CC(CC(C5)C3)C4)no2)c1 [Example 130a, N-((5-(3-(trifluoromethyl)phenyl)-1,2,4-oxadiazol-3-yl)methyl)adamantan-1-amine] | A (key: (A)=31-95%; (B)=0-30%)
Clc1cccc2cc(CNC34CC5CC(CC(C5)C3)C4)sc12 [Example 183a, Adamantan-1-yl-(7-chloro-benzo[b]thiophen-2-ylmethyl)-amine] | B (key: (A)=31-95%; (B)=0-30%)
c1cc2cn[nH]c2cc1CNC12CC3CC(CC(C3)C1)C2 [Example 43a, N-((1H-indazol-6-yl)methyl)adamantan-1-amine] | B (key: (A)=31-95%; (B)=0-30%)
COc1ccc2nc(CN(Cc3nc4ccc(OC)cc4[nH]3)C34CC5CC(CC(C5)C3)C4)[nH]c2c1 [Example 201a, Adamantan-1-yl-bis-(6-methoxy-1H-benzoimidazol-2-ylmethyl)-amine] | B (key: (A)=31-95%; (B)=0-30%)
c1csc(-c2cc(CNC34CC5CC(CC(C5)C3)C4)on2)c1 [Example 149a, N-((3-(thiophen-2-yl)isoxazol-5-yl)methyl)adamantan-1-amine] | A (key: (A)=31-95%; (B)=0-30%)
OC12CC3CC(C1)CC(NCc1cc(-c4ccccc4)on1)(C3)C2 [Example 194a, (1s,3r,5R,7S)-3-(((5-phenylisoxazol-3-yl)methyl)amino)adamantan-1-ol] | A (key: (A)=31-95%; (B)=0-30%)
c1csc(-c2nc(CNC34CC5CC(CC(C5)C3)C4)no2)c1 [Example 146a, N-((5-(thiophen-2-yl)-1,2,4-oxadiazol-3-yl)methyl)adamantan-1-amine] | A (key: (A)=31-95%; (B)=0-30%)

Same assay, conditions: pH 5.5

SMILES | S31N OOcyte Inhibition at 100 uM (%)
c1nc(C2CCCCC2)ncc1CNC12CC3CC(CC(C3)C1)C2 [Example 61b, N-((2-cyclohexylpyrimidin-5-yl)methyl)adamantan-1-amine] | A (key: (A)=31-95%; (B)=0-30%)
COc1ncc(CNC23CC4CC(CC(C4)C2)C3)c(OC)n1 [Example 64b, N-((2,4-dimethoxypyrimidin-5-yl)methyl)adamantan-1-amine] | B (key: (A)=31-95%; (B)=0-30%)
Clc1nc(CNC23CC4CC(CC(C4)C2)C3)ns1 [Example 10b, N-((5-chloro-1,2,4-thiadiazol-3-yl)methyl)adamantan-1-amine] | A (key: (A)=31-95%; (B)=0-30%)
Fc1cc(F)cc(-c2cc(CNC34CC5CC(CC(C5)C3)C4)no2)c1 [Example 33b, N-((5-(3,5-difluorophenyl)isoxazol-3-yl)methyl)adamantan-1-amine] | A (key: (A)=31-95%; (B)=0-30%)
Clc1ccc(CNC23CC4CC(CC(C4)C2)C3)nn1 [Example 70b, Adamantan-1-yl-(6-chloro-pyridazin-3-ylmethyl)-amine] | B (key: (A)=31-95%; (B)=0-30%)
c1sc(CNC23CC4CC(CC(C4)C2)C3)cc1C1CC1 [Example 48b, N-((4-Cyclopropylthiophen-2-yl)methyl)adamantan-1-amine] | A (key: (A)=31-95%; (B)=0-30%)
Cn1cc(CNC23CC4CC(CC(C4)C2)C3)nn1 [Example 18b, N-((1-methyl-1H-1,2,3-triazol-4-yl)methyl)adamantan-1-amine] | B (key: (A)=31-95%; (B)=0-30%)
COc1ccccc1-c1noc(CNC23CC4CC(CC(C4)C2)C3)n1 [Example 30b, N-((3-(2-methoxyphenyl)-1,2,4-oxadiazol-5-yl)methyl)adamantan-1-amine] | A (key: (A)=31-95%; (B)=0-30%)
COc1ncc(CNC23CC4CC(CC(C4)C2)C3)cn1 [Example 55b, N-((2-methoxypyrimidin-5-yl)methyl)adamantan-1-amine] | A (key: (A)=31-95%; (B)=0-30%)
CCCSc1ncc(CNC23CC4CC(CC(C4)C2)C3)cn1 [Example 62b, N-((2-propylthiopyrimidin-5-yl)methyl)adamantan-1-amine] | A (key: (A)=31-95%; (B)=0-30%)
Clc1ccccc1-c1nc(CNC23CC4CC(CC(C4)C2)C3)no1 [Example 31b, N-((5-(2-chlorophenyl)-1,2,4-oxadiazol-3-yl)methyl)adamantan-1-amine] | A (key: (A)=31-95%; (B)=0-30%)
CSc1ccc(-c2cc(CNCC34CC5CC(CC(C5)C3)C4)no2)cc1 [Example 40b, 1-((3r,5r,7r)-adamantan-1-yl)-N-((5-(4-(methylthio)phenyl)isoxazol-3-yl)methyl)methanamine] | A (key: (A)=31-95%; (B)=0-30%)
CC(C)(C)c1ccc(-c2ccc(CNC34CC5CC(CC(C5)C3)C4)s2)cc1 [Example 50b, N-((5-(4-(tert-Butyl)phenyl)thiophen-2-yl)methyl)adamantan-1-amine] | A (key: (A)=31-95%; (B)=0-30%)
c1nc(N2CCCC2)ncc1CNC12CC3CC(CC(C3)C1)C2 [Example 54b, N-((2-(pyrrolidin-1-yl)pyrimidin-5-yl)methyl)adamantan-1-amine] | A (key: (A)=31-95%; (B)=0-30%)
CSc1ccccc1-c1cc(CNC23CC4CC(CC(C4)C2)C3)no1 [Example 42b, N-((5-(2-(methylthio)phenyl)isoxazol-3-yl)methyl)adamantan-1-amine] | A (key: (A)=31-95%; (B)=0-30%)
COc1ccc2nc(CNC34CC5CC(CC(C5)C3)C4)[nH]c2c1 [Example 79b, Adamantan-1-yl-(6-methoxy-1H-benzoimidazol-2-ylmethyl)-amine] | A (key: (A)=31-95%; (B)=0-30%)
CC(NC12CC3CC(CC(C3)C1)C2)c1ccc(-c2ccccc2)cc1 (stereo not drawn) [Example 4b, N-(1-([1,1′-biphenyl]-4-yl)ethyl)adamantan-1-amine] | B (key: (A)=31-95%; (B)=0-30%)
C(#Cc1cccs1)CNC12CC3CC(CC(C3)C1)C2 [Example 88b] | A (key: (A)=31-95%; (B)=0-30%)
C1COC(c2nc(CNC34CC5CC(CC(C5)C3)C4)no2)C1 (stereo not drawn) [Example 21b, N-((5-(tetrahydrofuran-2-yl)-1,2,4-oxadiazol-3-yl)methyl)adamantan-1-amine] | A (key: (A)=31-95%; (B)=0-30%)
Clc1ncc(CNC23CC4CC(CC(C4)C2)C3)s1 [Example 13b, N-((2-chlorothiazol-5-yl)methyl)adamantan-1-amine] | B (key: (A)=31-95%; (B)=0-30%)
Oc1cc(F)ccc1CNC12CC3CC(CC(C3)C1)C2 [Example 6b] | A (key: (A)=31-95%; (B)=0-30%)

— patent US9884832B2 (priority 2011, dated 2018)
